≈ marks a conversion by molar mass, not a printed value.
System: Mycobacterium tuberculosis
Assay: Antitubercular activity against Mycobacterium tuberculosis H37Rv ATCC 27294 after 7 days by MABA
Assay type: functional
Parameters: -logMIC: unit not given here
Conditions: for MIC: Mycobacterium tuberculosis, H37Rv ATCC 27294, 168 h

Compound	-logMIC	MIC [mg/L]
CC(C)(C)c1ccc(N2CCN(Cc3ccc([N+](=O)[O-])o3)CC2)cc1	4.796	0.016 (≈ 0.0466 µM)
CCC(C)C(=O)N1CCN(Cc2ccc([N+](=O)[O-])o2)CC1 (stereo not drawn)	3.303	3.09 (≈ 10.5 µM)
CC(C)(C)C(=O)N1CCN(Cc2ccc([N+](=O)[O-])o2)CC1	3.023	0.948 (≈ 3.21 µM)
O=C(CN1CCN(Cc2ccc([N+](=O)[O-])o2)CC1)Nc1ccccc1	1.99	10.2 (≈ 29.7 µM)
O=C(C1CCCCC1)N1CCC2(CCN(Cc3ccc([N+](=O)[O-])o3)CC2)CC1		3.87 (≈ 9.93 µM)
COc1ccc2c(c1)CN(Cc1ccc([N+](=O)[O-])o1)CC2	3.918	0.121 (≈ 0.42 µM)
COc1ccc(S(=O)(=O)N2CC3CN(Cc4ccc([N+](=O)[O-])o4)CC3C2)cc1 (stereo not drawn)		0.405 (≈ 0.994 µM)
O=[N+]([O-])c1ccc(CN2Cc3ccc(F)cc3C2)o1	3.31	0.49 (≈ 1.87 µM)
CC(=O)N1CCN(Cc2ccc([N+](=O)[O-])o2)CC1	1.922	12 (≈ 47.3 µM)
O=C(C1CCCCC1)N1CCN(Cc2ccc([N+](=O)[O-])o2)CC1	3.621	0.239 (≈ 0.744 µM)
O=[N+]([O-])c1ccc(S(=O)(=O)N2CC3CN(Cc4ccc([N+](=O)[O-])o4)CC3C2)cc1 (stereo not drawn)		0.235 (≈ 0.556 µM)
CC(C)CC(=O)N1CCC2(CCN(Cc3ccc([N+](=O)[O-])o3)CC2)CC1		2.41 (≈ 6.63 µM)
N#Cc1ccc2c(c1)CN(Cc1ccc([N+](=O)[O-])o1)CC2	3.988	0.103 (≈ 0.364 µM)
CC(C)(C)OC(=O)CN1CCN(Cc2ccc([N+](=O)[O-])o2)CC1	2.514	3.06 (≈ 9.4 µM)
CC(C)(C)c1cccc(N2CCC3(CCN(Cc4ccc([N+](=O)[O-])o4)CC3)CC2)c1	>4.796	< 0.016
O=C(c1ccccc1)N1CCN(Cc2ccc([N+](=O)[O-])o2)CC1	2.733	1.85 (≈ 5.86 µM)
COc1ccc(CON=C2CCN(Cc3ccc([N+](=O)[O-])o3)CC2)cc1	4.293	0.051 (≈ 0.142 µM)
CN(C)C(=O)CN1CCN(Cc2ccc([N+](=O)[O-])o2)CC1	1.516	30.5 (≈ 103 µM)
CC(=O)N1CCC2(CCN(Cc3ccc([N+](=O)[O-])o3)CC2)CC1		32 (≈ 99.6 µM)
O=[N+]([O-])c1ccc(CN2CCc3ccc(Cl)cc3C2)o1	3.962	0.109 (≈ 0.372 µM)
O=C(c1ccc(F)cc1)N1CCN(Cc2ccc([N+](=O)[O-])o2)CC1	2.779	1.66 (≈ 4.99 µM)
O=[N+]([O-])c1ccc(CN2CC3CN(S(=O)(=O)c4ccc(C(F)(F)F)cc4)CC3C2)o1 (stereo not drawn)		0.123 (≈ 0.276 µM)
CNc1ccc(C(=O)N2CCN(Cc3ccc([N+](=O)[O-])o3)CC2)cc1	3.315	0.484 (≈ 1.41 µM)
CCON=C1CCN(Cc2ccc([N+](=O)[O-])o2)CC1	3.029	0.935 (≈ 3.5 µM)
COc1ccc(C(=O)N2CCN(Cc3ccc([N+](=O)[O-])o3)CC2)cc1	3.408	0.391 (≈ 1.13 µM)

Compound	-logMIC	MIC [mg/L]
CC(C)CC(=O)N1CCN(Cc2ccc([N+](=O)[O-])o2)CC1	2.51	0.498 (≈ 1.69 µM)
CC(=O)CCN1CC2CN(Cc3ccc([N+](=O)[O-])o3)CC2C1 (stereo not drawn)		32 (≈ 104 µM)
CC(C)(C)C(=O)N1CC2CN(Cc3ccc([N+](=O)[O-])o3)CC2C1 (stereo not drawn)		1.55 (≈ 4.81 µM)
O=[N+]([O-])c1ccc(CN2CCC(c3ccc(C(F)(F)F)cc3)CC2)o1	2.609	2.46 (≈ 6.94 µM)
O=[N+]([O-])c1ccc(CN2Cc3ccccc3C2)o1	2.749	1.78 (≈ 7.3 µM)
O=C(CN1CCN(Cc2ccc([N+](=O)[O-])o2)CC1)Oc1ccccc1	3.325	0.473 (≈ 1.37 µM)
O=[N+]([O-])c1ccc(CN2CCc3ccc(Br)cc3C2)o1	4.206	0.062 (≈ 0.184 µM)
O=C(C1CCCCC1)N1CC2CN(Cc3ccc([N+](=O)[O-])o3)CC2C1 (stereo not drawn)		7.68 (≈ 22.1 µM)
CC(C)(C)c1ccc(S(=O)(=O)N2CC3CN(Cc4ccc([N+](=O)[O-])o4)CC3C2)cc1 (stereo not drawn)		0.126 (≈ 0.291 µM)
O=[N+]([O-])c1ccc(CN2CCC3(CC2)CCN(S(=O)(=O)c2ccc(Cl)cc2)CC3)o1	4.51	0.031 (≈ 0.0683 µM)
O=[N+]([O-])c1ccc(CN2CCC(c3ccc(Br)cc3)CC2)o1	3.31	0.49 (≈ 1.34 µM)
O=[N+]([O-])c1ccc(CN2CCC(c3ccc(F)cc3)CC2)o1	3.337	0.46 (≈ 1.51 µM)
CC(=O)CN1CCN(Cc2ccc([N+](=O)[O-])o2)CC1	2.117	7.63 (≈ 28.6 µM)
O=[N+]([O-])c1ccc(CN2CCC(=NOCc3ccc(C(F)(F)F)cc3)CC2)o1	3.673	0.212 (≈ 0.534 µM)
CCOC(=O)CN1CCN(Cc2ccc([N+](=O)[O-])o2)CC1	2.414	3.85 (≈ 13 µM)
O=[N+]([O-])c1ccc(CN2CCC(=NOCc3ccccc3)CC2)o1	3.608	0.247 (≈ 0.75 µM)
COc1ccc(C2CCN(Cc3ccc([N+](=O)[O-])o3)CC2)cc1	3.4	0.398 (≈ 1.26 µM)
CON=C1CCN(Cc2ccc([N+](=O)[O-])o2)CC1	2.701	1.99 (≈ 7.85 µM)
O=[N+]([O-])c1ccc(CN2CCNCC2)o1	3.616	0.242 (≈ 1.15 µM)
CC(C)(C)c1ccc(N2CCC3(CCN(Cc4ccc([N+](=O)[O-])o4)CC3)CC2)cc1	>4.796	< 0.016
O=[N+]([O-])c1ccc(CN2CCC(c3ccc(OC(F)(F)F)cc3)CC2)o1	3.303	0.497 (≈ 1.34 µM)
O=[N+]([O-])c1ccc(CON=C2CCN(Cc3ccc([N+](=O)[O-])o3)CC2)cc1	3.742	0.181 (≈ 0.484 µM)
N#Cc1ccc2c(c1)CN(Cc1ccc([N+](=O)[O-])o1)C2	3.766	0.171 (≈ 0.635 µM)
NNC(=O)c1ccncc1 [ISONIAZID]		0.038 (≈ 0.277 µM)
CO[C@H]1/C=C/O[C@@]2(C)Oc3c(C)c(O)c4c(O)c(c(/C=N/N5CCN(C)CC5)c(O)c4c3C2=O)NC(=O)/C(C)=C\C=C\[C@H](C)[C@H](O)[C@@H](C)[C@@H](O)[C@@H](C)[C@H](OC(C)=O)[C@@H]1C [RIFAMPIN]		0.127 (≈ 0.154 µM)

Reference: ChEMBL document CHEMBL4219156, “Synthesis, evaluation and CoMFA/CoMSIA study of nitrofuranyl methyl N-heterocycles as novel antitubercular agents” (2018)
